Assay results: patent US9499550B2 (BRISTOL-MYERS SQUIBB COMPANY, priority 2012, dated 2016)
Read-outs that look alike come from different tables or passages of the source.

Tests used:
[1] = test system: HCV genotype 1a (H77 strain) replicon in HUH-7 cells; test: HCV replicon luciferase reporter assay, genotype 1a; type: cell-based; conditions: Hepatitis C virus, Huh-7, 72 h, 3 days incubation
Summary of the method: (§1)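 Replicon inhibition for both genotypes was measured as Renilla luciferase signal (EnduRen, 7.5 μM final, 2 h) after 3-day, 37° C exposure of replicon-bearing HUH-7 cells in 4% FCS DMEM, 0.5% DMSO. The 1b construct carries S1179I; the 1a H77 construct carries P1496L and S2204I. Twenty-point, 3-fold dilutions were fitted four-parametrically for EC50, and CC50 was taken from multiplexed Cell Titer-Blue.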

[2] = test system: HCV genotype 1b (Con1) replicon in HUH-7 cells; test: HCV replicon luciferase reporter assay, genotype 1b; type: cell-based; conditions: Hepatitis C virus, Huh-7, 72 h, 3 days incubation
Summary of the method: as §1

[3] = HCV genotype 1a replicon luciferase, read-out: LE_1a (EC50, range)
[4] = HCV genotype 1b replicon luciferase, read-out: LE_1b (EC50, range)

Row | Compound | EC50 [1, 3] [nM] | EC50 [2, 4] [nM] | further results
1 | [2H]C([2H])([2H])C(OC(=O)N[C@@H]1C(=O)N2C[C@H](Oc3nc(-c4ccc(OC(C)C)cn4)cc4cc(OC)ccc34)C[C@H]2C(=O)N[C@]2(C(=O)NS(=O)(=O)C3CC3)C[C@H]2/C=C\CC[C@@H](C)C[C@H]1C)(C([2H])([2H])[2H])C(F)(F)F [Compound 5205, 1,1,1,3,3,3-hexadeutero-2-(trifluoromethyl)propan-2-yl((2R,6S,7R,9R,13aS,14aR,16aS,Z)-14a-((cyclopropylsulfonyl)carbamoyl)-2-((3-(5-isopropoxypyridin-2-yl)-6-methoxyisoquinolin-1-yl)oxy)-7,9-dimethyl-5,16-dioxo-1,2,3,5,6,7,8,9,10,11,13a,14,14a,15,16,16a-hexadecahydrocyclopropa[e]pyrrolo[1,2-a][1,4]diazacyclopentadecin-6-yl)carbamate] | < 5.46 | < 5.46 | –
2 | CC[C@@H]1C[C@H](C)CC/C=C\[C@@H]2C[C@@]2(C(=O)NS(=O)(=O)C2(C)CC2)NC(=O)[C@@H]2C[C@@H](Oc3ncc(OC)c4ccc(F)cc34)CN2C(=O)[C@H]1NC(=O)O[C@H](C)C(F)(F)F [Compound 4357, (R)-1,1,1-trifluoropropan-2-yl ((2R,6S,7R,9R,13aS,14aR,16aS,Z)-7-ethyl-2-((7-fluoro-4-methoxyisoquinolin-1-yl)oxy)-9-methyl-14a-(((1-methylcyclopropyl)sulfonyl)carbamoyl)-5,16-dioxo-1,2,3,5,6,7,8,9,10,11,13a,14,14a,15,16,16a-hexadecahydrocyclopropa[e]pyrrolo[1,2-a][1,4]diazacyclopentadecin-6-yl)carbamate] | 1.01 to 5 | 0.51 to 1 | –
3 | CC[C@@H]1C[C@H](C)CC/C=C\[C@@H]2C[C@@]2(C(=O)NS(=O)(=O)C2CC2)NC(=O)[C@@H]2C[C@@H](Oc3nc4ccc(OC)cc4nc3N(C)C)CN2C(=O)C1NC(=O)OC(C)(C)C(F)(F)F (stereo partly shown) [Compound 4305] | – | – | EC50 ([1]; GETYPE1A, HCV genotype 1a replicon luciferase, read-out: LE_1a (EC50, range)): 35 to 620 nM; EC50 ([2]; GETYPE1B, HCV genotype 1b replicon luciferase, read-out: LE_1b (EC50, range)): 5.01 to 35 nM
4 | CC[C@@H]1C[C@H](C)CC/C=C\[C@@H]2C[C@@]2(C(=O)NS(=O)(=O)C2CC2)NC(=O)[C@@H]2C[C@@H](Oc3nccc4cc(OC)c(F)cc34)CN2C(=O)[C@H]1NC(=O)OC(C)(C)C [Compound 4003, tert-butyl (2R,6S,7R,9R,13aS,14aR,16aS,Z)-14a-(cyclopropylsulfonylcarbamoyl)-7-ethyl-2-(7-fluoro-6-methoxyisoquinolin-1-yloxy)-9-methyl-5,16-dioxo-1,2,3,5,6,7,8,9,10,11,13a,14,14a,15,16,16a-hexadecahydrocyclopropa[e]pyrrolo[1,2-a][1,4]diazacyclopentadecin-6-ylcarbamate] | < 5.46 | < 5.46 | –
5 | COc1cc2cc(F)ccc2c(O[C@@H]2C[C@H]3C(=O)N[C@]4(C(=O)NS(=O)(=O)C5(CF)CC5)C[C@H]4/C=C\CC[C@@H](C)C[C@@H](C)[C@H](NC(=O)OC(C)(C)C(C)(F)F)C(=O)N3C2)n1 [Compound 3218, 3,3-difluoro-2-methylbutan-2-yl((2R,6S,7R,9R,13aS,14aR,16aS,Z)-2-((6-fluoro-3-methoxyisoquinolin-1-yl)oxy)-14a-(((1-(fluoromethyl)cyclopropyl)sulfonyl)carbamoyl)-7,9-dimethyl-5,16-dioxo-1,2,3,5,6,7,8,9,10,11,13a,14,14a,15,16,16a-hexadecahydrocyclopropa[e]pyrrolo[1,2-a][1,4]diazacyclopentadecin-6-yl)carbamate] | 1.01 to 5 | 0.1 to 0.5 | –
6 | COc1ccc2ncc(O[C@@H]3C[C@H]4C(=O)N[C@]5(C(=O)NS(=O)(=O)C6(CF)CC6)C[C@H]5/C=C\CC[C@@H](C)C[C@@H](C)[C@H](NC(=O)OC(C)(C)C)C(=O)N4C3)nc2c1 [Compound 4089, tert-butyl (2R,6S,7R,9R,13aS,14aR,16aS,Z)-14a-(1-(fluoromethyl)cyclopropylsulfonylcarbamoyl)-2-(7-methoxyquinoxalin-2-yloxy)-7,9-dimethyl-5,16-dioxo-1,2,3,5,6,7,8,9,10,11,13a,14,14a,15,16,16a-hexadecahydrocyclopropa[e]pyrrolo[1,2-a][1,4]diazacyclopentadecin-6-ylcarbamate] | 4.82 to 103 | < 5.46 | –
7 | CC[C@@H]1C[C@H](C)CC/C=C\[C@@H]2C[C@@]2(C(=O)NS(=O)(=O)C2(C)CC2)NC(=O)[C@@H]2C[C@@H](Oc3nccc4cc(OC)c(F)cc34)CN2C(=O)[C@H]1NC(=O)C(C)(C)C(F)(F)F [Compound 4332, (2R,6S,7R,9R,13aS,14aR,16aS,Z)-7-ethyl-2-((7-fluoro-6-methoxyisoquinolin-1-yl)oxy)-9-methyl-N-((1-methylcyclopropyl)sulfonyl)-5,16-dioxo-6-(3,3,3-trifluoro-2,2-dimethylpropanamido)-1,2,3,5,6,7,8,9,10,11,13a,14,14a,15,16,16a-hexadecahydrocyclopropa[e]pyrrolo[1,2-a][1,4]diazacyclopentadecine-14a-carboxamide] | 1.01 to 5 | 1.01 to 5 | –
8 | C[C@@H]1CC/C=C\[C@@H]2C[C@@]2(C(=O)NS(=O)(=O)C2(CF)CC2)NC(=O)[C@@H]2C[C@@H](Oc3nc4c(c5ccccc35)OCCC4)CN2C(=O)[C@@H](NC(=O)OC(C)(C)C(F)(F)F)[C@H](C)C1 [Compound 6030, 1,1,1-trifluoro-2-methylpropan-2-yl((2R,6S,7R,9R,13aS,14aR,16aS,Z)-2-((3,4-dihydro-2H-pyrano[3,2-c]isoquinolin-6-yl)oxy)-14a-(((1-(fluoromethyl)cyclopropyl)sulfonyl)carbamoyl)-7,9-dimethyl-5,16-dioxo-1,2,3,5,6,7,8,9,10,11,13a,14,14a,15,16,16a-hexadecahydrocyclopropa[e]pyrrolo[1,2-a][1,4]diazacyclopentadecin-6-yl)carbamate] | < 5.46 | < 5.46 | EC50 ([1]; HCV genotype 1a replicon luciferase, read-out: LE_1a (EC50)): 1.43 nM; EC50 ([2]; HCV genotype 1b replicon luciferase, read-out: LE_1b (EC50)): 0.81 nM
9 | COc1cnc(O[C@@H]2C[C@H]3C(=O)N[C@]4(C(=O)NS(=O)(=O)C5(CF)CC5)C[C@H]4/C=C\CC[C@@H](C)C[C@@H](C)[C@H](NC(=O)OC4(C)CCOC4)C(=O)N3C2)c2ccccc12 (stereo partly drawn) [Compound 1064, 3-methyltetrahydrofuran-3-yl ((2R,6S,7R,9R,13aS,14aR,16aS,Z)-14a-(((1-(fluoromethyl)cyclopropyl)sulfonyl)carbamoyl)-2-((4-methoxyisoquinolin-1-yl)oxy)-7,9-dimethyl-5,16-dioxo-1,2,3,5,6,7,8,9,10,11,13a,14,14a,15,16,16a-hexadecahydrocyclopropa[e]pyrrolo[1,2-a][1,4]diazacyclopentadecin-6-yl)carbamate] | – | – | EC50 ([1]; HCV genotype 1a replicon luciferase assay, range class, read-out: LE_1a (EC50, range)): < 5.46 nM; EC50 ([2]; HCV genotype 1b replicon luciferase assay, range class, read-out: LE_1b (EC50, range)): < 5.46 nM
10 | COc1ccc2c(Cl)cc(O[C@@H]3C[C@H]4C(=O)N[C@]5(C(=O)NS(=O)(=O)C6(C)CC6)C[C@H]5/C=C\CC[C@@H](C)C[C@@H](C)[C@H](NC(=O)OC(C)(C)C)C(=O)N4C3)nc2c1 [Compound 4300, tert-butyl ((2R,6S,7R,9R,13aS,14aR,16aS,Z)-2-((4-chloro-7-methoxyquinolin-2-yl)oxy)-7,9-dimethyl-14a-(((1-methylcyclopropyl)sulfonyl)carbamoyl)-5,16-dioxo-1,2,3,5,6,7,8,9,10,11,13a,14,14a,15,16,16a-hexadecahydrocyclopropa[e]pyrrolo[1,2-a][1,4]diazacyclopentadecin-6-yl)carbamate] | 0.51 to 1 | 0.51 to 1 | –
